One assay deals with FGFR4 (Homo sapiens, UniProt P22455). As to the kind of experiment: Activity inhibition for FGFR4 kinase (Z′-LYTE biochemical assay, Invitrogen SelectScreen). To be noted: ATP concentration based on Km. Here is the method:
(§1) For the synthesized compounds, inhibitory activity for FGFR1, 2, 3, 4 kinase was measured. Activity measurement was carried out by requesting to SelectScreen® Biochemical Kinase Profiling Service of Invitrogen. A Z′-LYTE® biochemical assay method was used, and the ATP concentration was set based on the Km value.

The target in the next assay is FGFR1 (Homo sapiens, UniProt P11362). The assay can be described thus: Activity inhibition for FGFR1 kinase (Z′-LYTE biochemical assay, Invitrogen SelectScreen). To be noted: ATP concentration based on Km. As to the method: as §1
The subject of another assay is HUH7 cells. As to the kind of experiment: Proliferation inhibitory effect for HUH7 cells (SRB assay). The format is cell-based. To be noted: Homo sapiens, Huh-7, 72 hours, GI50, read-out: IC50 HUH7 Cell Line. Here is the method:
Test Example 2: Measuring Inhibitory Effect of FGFR Inhibitor Using Cell Line
The test was carried out for identifying a proliferation inhibitory effect of the compound of the present invention for HUH7 cells. HUH7 cell lines were counted and 5.0×10^3 cells were inoculated per well in a 96 well plate. After the innoculation, the cells were cultured for 24 hours in a 37 □ and 5% carbon dioxide (CO2) incubator. On the next day, the synthesized compounds were each diluted and prepared. The diluted compounds were introduced to the cell lines inoculated the previous day by concentrations, and reacted for 72 hours in a 37 □ and 5% carbon dioxide (CO2) incubator. However, to a positive control to which the compound was not added, 0.1% dimethyl sulfoxide (DMSO) diluted with a medium was introduced. To a negative control plate, a trichloroacetic acid (TCA) solution was introduced, and fixed at 4 □. After reacting for 72 hours, the medium including the compound was removed, a TCA solution was added thereto, and the cells were fixed for 30 minutes to 60 minutes at 4 □. The TCA solution was discarded, the plate was washed off with distilled water and then dried in the air. A 0.4% sulforhodamin B (SRB) solution was added to the plate and dyed for 10 minutes at room temperature. The plate was washed off with tap water including a 1% acetic acid solution, and then dried in the air. A 10 mM Trizma base solution was added to dissolve the solid SRB. Using a microplate reader, optical density (O.D. value) was measured at 540 nm. A GI50 value of each of the compounds was calculated using GraphPad Prism V6.0 Software.

Where only a bound is given, the exact number is not on record here.

Sequence of FGFR4 (P22455 22-802): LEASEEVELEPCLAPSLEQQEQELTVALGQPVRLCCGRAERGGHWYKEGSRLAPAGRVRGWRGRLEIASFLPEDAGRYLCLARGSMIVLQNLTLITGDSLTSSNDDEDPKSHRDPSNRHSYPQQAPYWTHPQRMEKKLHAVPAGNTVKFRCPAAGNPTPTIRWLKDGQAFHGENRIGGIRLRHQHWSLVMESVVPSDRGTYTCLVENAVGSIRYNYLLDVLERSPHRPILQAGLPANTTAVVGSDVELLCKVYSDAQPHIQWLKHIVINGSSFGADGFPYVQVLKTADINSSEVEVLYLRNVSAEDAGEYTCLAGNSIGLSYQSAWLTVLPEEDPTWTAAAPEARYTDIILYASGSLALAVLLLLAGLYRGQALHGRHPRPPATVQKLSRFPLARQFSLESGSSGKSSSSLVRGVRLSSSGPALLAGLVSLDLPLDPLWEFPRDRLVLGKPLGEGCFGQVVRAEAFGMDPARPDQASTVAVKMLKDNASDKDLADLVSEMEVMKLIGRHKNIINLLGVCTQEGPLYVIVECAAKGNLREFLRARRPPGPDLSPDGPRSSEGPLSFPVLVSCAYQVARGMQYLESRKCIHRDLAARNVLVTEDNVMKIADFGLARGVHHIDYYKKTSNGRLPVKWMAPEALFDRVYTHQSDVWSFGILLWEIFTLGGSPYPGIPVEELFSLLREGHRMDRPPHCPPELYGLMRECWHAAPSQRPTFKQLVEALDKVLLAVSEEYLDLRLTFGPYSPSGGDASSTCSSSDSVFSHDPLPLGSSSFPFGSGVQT
Sequence of FGFR1 (P11362 22-822): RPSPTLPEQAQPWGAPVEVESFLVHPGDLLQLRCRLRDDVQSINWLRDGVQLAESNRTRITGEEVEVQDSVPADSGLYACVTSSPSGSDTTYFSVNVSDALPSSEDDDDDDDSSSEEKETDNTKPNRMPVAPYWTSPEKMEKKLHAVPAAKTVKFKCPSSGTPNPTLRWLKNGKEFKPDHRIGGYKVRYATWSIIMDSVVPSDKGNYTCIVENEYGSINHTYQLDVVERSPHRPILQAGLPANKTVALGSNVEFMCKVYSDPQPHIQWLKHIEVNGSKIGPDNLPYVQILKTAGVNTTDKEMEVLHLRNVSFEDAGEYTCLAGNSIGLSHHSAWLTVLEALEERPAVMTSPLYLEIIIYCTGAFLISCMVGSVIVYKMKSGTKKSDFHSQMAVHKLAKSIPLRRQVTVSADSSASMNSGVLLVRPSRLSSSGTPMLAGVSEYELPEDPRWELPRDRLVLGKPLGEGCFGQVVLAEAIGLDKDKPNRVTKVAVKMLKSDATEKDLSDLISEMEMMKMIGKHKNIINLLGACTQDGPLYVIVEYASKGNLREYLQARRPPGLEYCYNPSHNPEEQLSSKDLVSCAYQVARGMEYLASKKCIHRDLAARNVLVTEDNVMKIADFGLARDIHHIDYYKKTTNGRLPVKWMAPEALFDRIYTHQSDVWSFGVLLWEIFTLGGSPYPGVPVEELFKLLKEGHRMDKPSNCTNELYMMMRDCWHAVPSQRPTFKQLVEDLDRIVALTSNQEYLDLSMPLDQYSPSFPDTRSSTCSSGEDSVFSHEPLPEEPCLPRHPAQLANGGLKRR

For the molecule `C=CC(=O)Nc1cc(N2CCS(=O)(=O)CC2)ccc1Nc1ncc2cc(-c3c(Cl)c(OC)cc(OC)c3Cl)c3nccn3c2n1` [compound 36], the IC50 against FGFR4, against FGFR1 and in the assay on HUH7 cells was under 50 nM each time.

On to `C=CC(=O)Nc1cc(N2CCN(S(C)(=O)=O)CC2)ccc1Nc1ncc2cc(-c3c(Cl)c(OC)cc(OC)c3Cl)c3nccn3c2n1` [compound 35], for which the IC50 against FGFR4, at FGFR1 and in the assay with HUH7 cells was under 50 nM each time.

On to `C=CC(=O)Nc1cc(N2CCN(CC)CC2)ccc1Nc1cc2c(cn1)cc(-c1c(Cl)c(OC)cc(OC)c1Cl)c1nccn12` [compound 85], for which the concentration for half-maximal inhibition (IC50) at FGFR4, against FGFR1 and in the assay with HUH7 cells was under 50 nM in each case.

As for `C=CC(=O)Nc1cc(N2CC[C@H](N(C)C)C2)ccc1Nc1ncc2cc(-c3c(Cl)c(OC)cc(OC)c3Cl)c3nccn3c2n1` [compound 48], the concentration for half-maximal inhibition (IC50) on FGFR4, against FGFR1 and with HUH7 cells was under 50 nM throughout.

For `C=CC(=O)Nc1cc(N2CCOCC2)cc(C)c1Nc1ncc2cc(-c3c(Cl)c(OC)cc(OC)c3Cl)c3nccn3c2n1` [compound 63], the IC50 – broadly, the concentration that inhibits the measured activity by half – is under 50 nM against FGFR4, 50 to 500 nM against FGFR1 and 50 to 500 nM in the assay on HUH7 cells.

As for `C=CC(=O)Nc1cc(N(C)CCOC)ccc1Nc1ncc2cc(-c3c(Cl)c(OC)cc(OC)c3Cl)c3nccn3c2n1` [compound 25], the IC50 at FGFR4, on FGFR1 and in the assay on HUH7 cells was under 50 nM each time.

In the case of `C=CC(=O)Nc1cc(OC2CCCC2)ccc1Nc1ncc2cc(-c3c(Cl)c(OC)cc(OC)c3Cl)c3nccn3c2n1` [compound 54], the 50% inhibitory concentration (IC50) is 50 to 500 nM on FGFR4, over 500 nM at FGFR1 and 50 to 500 nM with HUH7 cells.

On to `C=CC(=O)Nc1cc(N2CCNCC2)ccc1Nc1ncc2cc(-c3c(Cl)c(OC)cc(OC)c3Cl)c3nccn3c2n1` [compound 39], for which the half-inhibitory concentration (IC50) at FGFR4, against FGFR1 and with HUH7 cells was under 50 nM each time.

As to `C=CC(=O)Nc1cc(C)cc(C)c1Nc1ncc2cc(-c3c(Cl)c(OC)cc(OC)c3Cl)c3nccn3c2n1` [compound 58], the half-maximal inhibitory concentration (IC50) is 50 to 500 nM against FGFR4, over 500 nM against FGFR1 and 50 to 500 nM with HUH7 cells.

With `C=CC(=O)Nc1cccc(OC)c1Nc1ncc2cc(-c3c(Cl)c(OC)cc(OC)c3Cl)c3nccn3c2n1` [compound 11], the IC50 against FGFR4 was under 50 nM; against FGFR1 it was 50 to 500 nM; in the assay with HUH7 cells, 50 to 500 nM.

Regarding `C=CC(=O)Nc1cccc(F)c1Nc1ncc2cc(-c3c(F)c(OC)cc(OC)c3F)c3nccn3c2n1` [Synthesis Example 72, N-(2-((6-(2,6-difluoro-3,5-dimethoxyphenyl)imidazo[1′,2′:1,6]pyrido[2,3-d]pyrimidin-2-yl)amino)-3-fluorophenyl)acrylamide], the half-inhibitory concentration (IC50) at FGFR4 is under 50 nM; against FGFR1, over 500 nM; in the assay on HUH7 cells, under 50 nM.

`C=CC(=O)Nc1cccc(F)c1Nc1ncc2cc(-c3c(Cl)c(OC)cc(OC)c3Cl)c3nccn3c2n1` [compound 10]: the IC50 against FGFR4 was under 50 nM; on FGFR1, 50 to 500 nM; with HUH7 cells, under 50 nM.

`C=CC(=O)Nc1cc(S(C)(=O)=O)ccc1Nc1ncc2cc(-c3c(Cl)c(OC)cc(OC)c3Cl)c3nccn3c2n1` [compound 18]: the 50% inhibitory concentration (IC50) against FGFR4 is under 50 nM; on FGFR1, under 50 nM; with HUH7 cells it was 50 to 500 nM.

`C=CC(=O)Nc1cc(N2CCN(C)CC2)ccc1Nc1ncc2cc(-c3c(Cl)c(OC)cc(OC)c3Cl)c3nccn3c2n1` [compound 52]: the IC50 against FGFR4, against FGFR1 and in the assay on HUH7 cells was under 50 nM in each case.

As for `C=CC(=O)Nc1cc(N2CCOCC2)ccc1Nc1ncc2cc(-c3c(Cl)c(OC)cc(OC)c3Cl)c3nccn3c2n1` [compound 32], the half-inhibitory concentration (IC50) against FGFR4 and with HUH7 cells was under 50 nM each time.

As for `C=CC(=O)Nc1cc(O[C@@H]2CCOC2)ccc1Nc1ncc2cc(-c3c(Cl)c(OC)cc(OC)c3Cl)c3nccn3c2n1` [compound 53], the IC50 against FGFR4 and in the assay with HUH7 cells was under 50 nM in each case.

In the case of `C=CC(=O)Nc1cc(N2CC[C@H](OC)C2)ccc1Nc1ncc2cc(-c3c(Cl)c(OC)cc(OC)c3Cl)c3nccn3c2n1` [compound 44], the concentration for half-maximal inhibition (IC50) with HUH7 cells was under 50 nM.

Take `C#Cc1ccc(Nc2ncc3cc(-c4c(Cl)c(OC)cc(OC)c4Cl)c4nccn4c3n2)c(NC(=O)C=C)c1` [compound 16]: the IC50 with HUH7 cells lay in the range of 50 to 500 nM.

With `C=CC(=O)Nc1cc(N2CCN(CC)CC2)cc(F)c1Nc1ncc2cc(-c3c(Cl)c(OC)cc(OC)c3Cl)c3nccn3c2n1` [compound 66], in the assay on HUH7 cells, the IC50 was over 500 nM.

`C=CC(=O)Nc1cc(N2C[C@@H](C)O[C@@H](C)C2)ccc1Nc1ncc2cc(-c3c(Cl)c(OC)cc(OC)c3Cl)c3nccn3c2n1` [compound 38]: the IC50 at FGFR4, against FGFR1 and with HUH7 cells was under 50 nM each time.

For the molecule `C=CC(=O)Nc1cn(C)nc1Nc1cc2c(cn1)cc(-c1c(Cl)c(OC)cc(OC)c1Cl)c1nccn12` [compound 87], in the assay on HUH7 cells, the IC50 was under 50 nM.

Take `C=CC(=O)Nc1cc(C(C)C)ccc1Nc1ncc2cc(-c3c(Cl)c(OC)cc(OC)c3Cl)c3nccn3c2n1` [compound 22]: in the assay with HUH7 cells, the concentration for half-maximal inhibition (IC50) lay within 50 to 500 nM.

Consider `C=CC(=O)Nc1cc(N2CCN(C3CC3)CC2)ccc1Nc1ncc2cc(-c3c(Cl)c(OC)cc(OC)c3Cl)c3nccn3c2n1` [compound 51], for which, in the assay with HUH7 cells, the half-inhibitory concentration (IC50) was 50 to 500 nM.

Turning to `C=CC(=O)Nc1cccc(C)c1Nc1ncc2cc(-c3c(Cl)c(OC)cc(OC)c3Cl)c3nccn3c2n1` [compound 9], the results for the 50% inhibitory concentration (IC50) on FGFR4, at FGFR1 and in the assay on HUH7 cells were under 50 nM, over 500 nM and 50 to 500 nM, respectively.

For the molecule `C=CC(=O)N[C@H]1CCOC[C@H]1Nc1ncc2cc(-c3c(Cl)c(OC)cc(OC)c3Cl)c3nccn3c2n1` [Synthesis Example 4, N-((3S,4S)-3-((6-(2,6-dichloro-3,5-dimethoxyphenyl)imidazo[1′,2′:1,6]pyrido[2,3-d]pyrimidin-2-yl)amino)tetrahydro-2H-pyran-4-yl)acrylamide], the IC50 in the assay with HUH7 cells is 50 to 500 nM.

Regarding `C=CC(=O)Nc1cc(N2CCOC(C)C2)ccc1Nc1ncc2cc(-c3c(Cl)c(OC)cc(OC)c3Cl)c3nccn3c2n1` (stereo not shown) [compound 49], the IC50 in the assay on HUH7 cells is under 50 nM.

Regarding `C=CC(=O)Nc1cc(OCCOC)ccc1Nc1ncc2cc(-c3c(Cl)c(OC)cc(OC)c3Cl)c3nccn3c2n1` [compound 29], the IC50 against FGFR4, on FGFR1 and with HUH7 cells was under 50 nM in each case.

As to `C=CC(=O)Nc1cc(N2CCOCC2)ccc1Nc1cc2c(cn1)cc(-c1c(Cl)c(OC)cc(OC)c1Cl)c1nccn12` [Synthesis Example 83, N-(2-((4-(2,6-dichloro-3,5-dimethoxyphenyl)imidazo[1,2-a][1,6]naphthyridin-8-yl)amino)-5-morpholinophenyl)acrylamide], the concentration for half-maximal inhibition (IC50) against FGFR4, against FGFR1 and with HUH7 cells was under 50 nM in each case.

Consider `C=CC(=O)Nc1cc(N2CCN(CCOC)CC2)ccc1Nc1ncc2cc(-c3c(Cl)c(OC)cc(OC)c3Cl)c3nccn3c2n1` [compound 46], for which, in the assay with HUH7 cells, the IC50 is under 50 nM.

As to `COc1cc(OC)c(Cl)c(-c2cc3cnc(-c4cccc(N5CCOCC5)c4)nc3n3ccnc23)c1Cl` [Synthesis Example 80, 4-(3-(6-(2,6-dichloro-3,5-dimethoxyphenyl)imidazo[1′,2′:1,6]pyrido[2,3-d]pyrimidin-2-yl)phenyl)morpholine], the IC50 in the assay with HUH7 cells is over 500 nM.

As for `C=CC(=O)Nc1cc(N2CCN(CC)CC2)ccc1Nc1ncc2cc(-c3c(Cl)c(OC)cc(OC)c3Cl)c3nccn3c2n1` [compound 31], the half-inhibitory concentration (IC50) against FGFR4 and with HUH7 cells was under 50 nM each time.

With `C=CC(=O)Nc1cc(N2CC(OC)C2)ccc1Nc1ncc2cc(-c3c(Cl)c(OC)cc(OC)c3Cl)c3nccn3c2n1` [compound 37], the IC50 at FGFR4, against FGFR1 and in the assay with HUH7 cells was under 50 nM in each case.

Regarding `C=CC(=O)Nc1cc(N2CCOCC2)c(C)cc1Nc1ncc2cc(-c3c(Cl)c(OC)cc(OC)c3Cl)c3nccn3c2n1` [compound 61], the IC50 against FGFR4, on FGFR1 and in the assay on HUH7 cells was under 50 nM each time.

Source of the values: US10696675B2, “Imidazopyridopyrimidine derivative compound and use thereof” (HANMI PHARMACEUTICAL CO., LTD., priority 2016, dated 2020).
